What was measured:
[1] = test system: antibodies in sera from SARS patients (sera 1a, 1b, 2, 6, 37, 62, London, SARS-yellow, SARS-green); format: binding, human; set-up: Binding of serum 6 to linear peptides of protein X1 of SARS-CoV Urbani / Binding of serum 37 to linear peptides of protein X1 of SARS-CoV Urbani / Binding of serum 6 to looped/cyclic peptide (PEPSCAN-ELISA) / Binding of serum 37 to looped/cyclic peptide (PEPSCAN-ELISA) / Binding of serum 37 to looped/cyclic peptides of protein X1 of SARS-CoV Urbani / Binding of serum 6 to linear peptides of protein X2 / Binding of serum 37 to linear peptides of protein X2 / Binding of serum 37 to looped/cyclic peptides of protein X2 of SARS-CoV Urbani / Binding of serum 6 to linear peptides of protein M of SARS-CoV Urbani / Binding of serum 37 to linear peptides of protein M of SARS-CoV Urbani / Binding of serum 6 to looped/cyclic peptides of protein M of SARS-CoV Urbani / Binding of serum 37 to looped/cyclic peptides of protein M of SARS-CoV Urbani / Binding of serum 6 to linear peptides of protein X3 of SARS-CoV Urbani / Binding of serum 37 to linear peptides of protein X3 of SARS-CoV Urbani / Binding of serum 37 to looped/cyclic peptides of protein X3 of SARS-CoV Urbani / Binding of serum 6 to linear peptides of protein X4 of SARS-CoV Urbani / Binding of serum 37 to linear peptides of protein X4 of SARS-CoV Urbani / Binding of serum 37 to looped/cyclic peptides of protein X4 of SARS-CoV Urbani / Binding of serum 6 to linear peptides of protein X5 of SARS-CoV Urbani / Binding of serum 37 to linear peptides of protein X5 of SARS-CoV Urbani / Binding of serum 37 to looped/cyclic peptides of protein X5 of SARS-CoV Urbani / Binding of serum 6 to linear peptides of protein N of SARS-CoV Urbani / Binding of serum 37 to linear peptides of protein N of SARS-CoV Urbani / Binding of serum 6 to linear peptide (PEPSCAN-ELISA) / Binding of serum 1a to looped/cyclic peptides of protein N of SARS-CoV Urbani / Binding of serum 1b to looped/cyclic peptides of protein N of SARS-CoV Urbani / Binding of serum 2 to looped/cyclic peptides of protein N of SARS-CoV Urbani / Binding of serum 6 to looped/cyclic peptides of protein N of SARS-CoV Urbani / Binding of serum 37 to looped/cyclic peptides of protein N of SARS-CoV Urbani / Binding of serum 62 to looped/cyclic peptides of protein N of SARS-CoV Urbani / Binding of serum London to looped/cyclic peptides of protein N of SARS-CoV Urbani / Binding of serum SARS-green to looped/cyclic peptides of protein N of SARS-CoV Urbani: unit not given here
[2] = test system: control sera (pooled serum of ten healthy LUMC hospital workers; commercial negative donor pooled serum from the Dutch bloodbank); format: binding, human; set-up: Binding of Control serum LUMC to linear peptides / Binding of Control serum Blood-bank to linear peptides / Binding of Control serum LUMC to looped peptides / Binding of Control Serum Blood-Bank to Looped peptides / Binding of Control serum LUMC to linear peptides of the protein M of SARS-CoV Urbani / Binding of Control serum Blood-bank to linear peptides of the protein M of SARS-CoV Urbani / Binding of Control serum LUMC to looped peptides of the protein M of SARS-CoV Urbani / Binding of Control Serum Blood-Bank to Looped peptides of the protein M of SARS-CoV Urbani: unit not given here
[3] = test system: rabbit serum obtained by immunizing a rabbit with the SARS-CoV strain Frankfurt 1; format: binding; set-up: Binding of a rabbit serum to linear peptides / Binding of a rabbit serum to looped peptides / Rabbit serum linear peptides / Rabbit serum looped peptides / Binding of a rabbit serum to linear peptides of protein N of SARS-CoV Urbani (Rabbit serum linear peptides) / Binding of a rabbit serum to looped/cyclic peptides of protein N of SARS-CoV Urbani (Rabbit serum looped peptides): unit not given here
[4] = test system: recombinant human anti-SARS-CoV antibody 03-018; format: binding; set-up: Binding of antibody 03-018 to linear peptides of the N protein of SARS-CoV Urbani / Binding of antibody 03-018 to looped/cyclic peptides of the N protein of SARS-CoV Urbani: unit not given here

KKKKTDEAQPLPQRQ
Binding of serum 1a to linear peptides of protein N of SARS-CoV Urbani [1]: 0.3 | Binding of serum 1a to looped/cyclic peptides of protein N of SARS-CoV Urbani [1]: 0.2 | Binding of serum 1b to linear peptides of protein N of SARS-CoV Urbani [1]: 0.1 | Binding of serum 1b to looped/cyclic peptides of protein N of SARS-CoV Urbani [1]: 0.1 | Binding of serum 2 to linear peptides of protein N of SARS-CoV Urbani [1]: 0.3 | Binding of serum 2 to looped/cyclic peptides of protein N of SARS-CoV Urbani [1]: 0.3 | Binding of serum 6 to linear peptides of protein N of SARS-CoV Urbani [1]: 0.3 | Binding of serum 6 to looped/cyclic peptides of protein N of SARS-CoV Urbani [1]: 0.1 | Binding of serum 37 to linear peptides of protein N of SARS-CoV Urbani [1]: 0.7 | Binding of serum 37 to looped/cyclic peptides of protein N of SARS-CoV Urbani [1]: 0.4 | Binding of serum 62 to linear peptides of protein N of SARS-CoV Urbani [1]: 0.7 | Binding of serum 62 to looped/cyclic peptides of protein N of SARS-CoV Urbani [1]: 0.3 | Binding of serum London to linear peptides of protein N of SARS-CoV Urbani [1]: 0.8 | Binding of serum London to looped/cyclic peptides of protein N of SARS-CoV Urbani [1]: 0.3 | Binding of serum SARS-green to linear peptides of protein N of SARS-CoV Urbani [1]: 0.6 | Binding of serum SARS-green to looped/cyclic peptides of protein N of SARS-CoV Urbani [1]: 0.1 | Binding of serum SARS-yellow to linear peptides of protein N of SARS-CoV Urbani [1]: 0.9 | Binding of serum SARS-yellow to looped/cyclic peptides of protein N of SARS-CoV Urbani [1]: 0.2 | Control Serum Blood-Bank Looped peptides [2]: 0.6 | Control serum Blood-bank linear peptides [2]: 1.0 | Control serum LUMC linear peptides [2]: 0.9 | Control serum LUMC looped peptides [2]: 0.4 | Binding of a rabbit serum to linear peptides of protein N of SARS-CoV Urbani (Rabbit serum linear peptides) [3]: 0.2 | Binding of a rabbit serum to looped/cyclic peptides of protein N of SARS-CoV Urbani (Rabbit serum looped peptides) [3]: 0.1 | Binding of antibody 03-018 to linear peptides of the N protein of SARS-CoV Urbani [4]: 0.1 | Binding of antibody 03-018 to looped/cyclic peptides of the N protein of SARS-CoV Urbani [4]: 0.2

KKKTDEAQPLPQRQK
Binding of serum 1a to linear peptides of protein N of SARS-CoV Urbani [1]: 0.2 | Binding of serum 1a to looped/cyclic peptides of protein N of SARS-CoV Urbani [1]: 0.2 | Binding of serum 1b to linear peptides of protein N of SARS-CoV Urbani [1]: 0.1 | Binding of serum 1b to looped/cyclic peptides of protein N of SARS-CoV Urbani [1]: 0.1 | Binding of serum 2 to linear peptides of protein N of SARS-CoV Urbani [1]: 0.2 | Binding of serum 2 to looped/cyclic peptides of protein N of SARS-CoV Urbani [1]: 0.1 | Binding of serum 6 to linear peptides of protein N of SARS-CoV Urbani [1]: 0.7 | Binding of serum 6 to looped/cyclic peptides of protein N of SARS-CoV Urbani [1]: 0.0 | Binding of serum 37 to linear peptides of protein N of SARS-CoV Urbani [1]: 0.9 | Binding of serum 37 to looped/cyclic peptides of protein N of SARS-CoV Urbani [1]: 0.3 | Binding of serum 62 to linear peptides of protein N of SARS-CoV Urbani [1]: 0.6 | Binding of serum 62 to looped/cyclic peptides of protein N of SARS-CoV Urbani [1]: 0.2 | Binding of serum London to linear peptides of protein N of SARS-CoV Urbani [1]: 1.1 | Binding of serum London to looped/cyclic peptides of protein N of SARS-CoV Urbani [1]: 0.3 | Binding of serum SARS-green to linear peptides of protein N of SARS-CoV Urbani [1]: 0.4 | Binding of serum SARS-green to looped/cyclic peptides of protein N of SARS-CoV Urbani [1]: 0.0 | Binding of serum SARS-yellow to linear peptides of protein N of SARS-CoV Urbani [1]: 1.0 | Binding of serum SARS-yellow to looped/cyclic peptides of protein N of SARS-CoV Urbani [1]: 0.0 | Control Serum Blood-Bank Looped peptides [2]: 0.4 | Control serum Blood-bank linear peptides [2]: 0.9 | Control serum LUMC linear peptides [2]: 0.8 | Control serum LUMC looped peptides [2]: 0.3 | Binding of a rabbit serum to linear peptides of protein N of SARS-CoV Urbani (Rabbit serum linear peptides) [3]: 0.2 | Binding of a rabbit serum to looped/cyclic peptides of protein N of SARS-CoV Urbani (Rabbit serum looped peptides) [3]: 0.1 | Binding of antibody 03-018 to linear peptides of the N protein of SARS-CoV Urbani [4]: 0.1 | Binding of antibody 03-018 to looped/cyclic peptides of the N protein of SARS-CoV Urbani [4]: 0.2

KKSAAEASKKPRQKR
Binding of serum 1a to looped/cyclic peptides of protein N of SARS-CoV Urbani [1]: 0.2 | Binding of serum 1b to looped/cyclic peptides of protein N of SARS-CoV Urbani [1]: 0.1 | Binding of serum 2 to looped/cyclic peptides of protein N of SARS-CoV Urbani [1]: 0.3 | Binding of serum 6 to looped/cyclic peptides of protein N of SARS-CoV Urbani [1]: 0.2 | Binding of serum 37 to looped/cyclic peptides of protein N of SARS-CoV Urbani [1]: 0.5 | Binding of serum 62 to looped/cyclic peptides of protein N of SARS-CoV Urbani [1]: 0.3 | Binding of serum London to looped/cyclic peptides of protein N of SARS-CoV Urbani [1]: 0.4 | Binding of serum SARS-green to looped/cyclic peptides of protein N of SARS-CoV Urbani [1]: 0.2 | Binding of serum SARS-yellow to looped/cyclic peptides of protein N of SARS-CoV Urbani [1]: 0.3 | Recognition of the peptide by sera of SARS-CoV infected individuals, and form (linear, looped/cyclic) in which it is recognized [1]: recognized in linear form | Binding of Control Serum Blood-Bank to Looped peptides [2]: 0.5 | Binding of Control serum Blood-bank to linear peptides [2]: 1.0 | Binding of Control serum LUMC to linear peptides [2]: 1.0 | Binding of Control serum LUMC to looped peptides [2]: 0.5 | Binding of a rabbit serum to linear peptides of protein N of SARS-CoV Urbani (Rabbit serum linear peptides) [3]: 0.4 | Binding of a rabbit serum to looped/cyclic peptides of protein N of SARS-CoV Urbani (Rabbit serum looped peptides) [3]: 0.8 | Binding of antibody 03-018 to linear peptides of the N protein of SARS-CoV Urbani [4]: 0.1 | Binding of antibody 03-018 to looped/cyclic peptides of the N protein of SARS-CoV Urbani [4]: 0.2

KQPTVTLLPAADMDD
Binding of serum 1a to linear peptides of protein N of SARS-CoV Urbani [1]: 0.3 | Binding of serum 1a to looped/cyclic peptides of protein N of SARS-CoV Urbani [1]: 0.3 | Binding of serum 1b to linear peptides of protein N of SARS-CoV Urbani [1]: 0.2 | Binding of serum 1b to looped/cyclic peptides of protein N of SARS-CoV Urbani [1]: 0.2 | Binding of serum 2 to linear peptides of protein N of SARS-CoV Urbani [1]: 0.2 | Binding of serum 2 to looped/cyclic peptides of protein N of SARS-CoV Urbani [1]: 0.2 | Binding of serum 6 to linear peptides of protein N of SARS-CoV Urbani [1]: 0.2 | Binding of serum 6 to looped/cyclic peptides of protein N of SARS-CoV Urbani [1]: 0.0 | Binding of serum 37 to linear peptides of protein N of SARS-CoV Urbani [1]: 1.2 | Binding of serum 37 to looped/cyclic peptides of protein N of SARS-CoV Urbani [1]: 0.4 | Binding of serum 62 to linear peptides of protein N of SARS-CoV Urbani [1]: 0.8 | Binding of serum 62 to looped/cyclic peptides of protein N of SARS-CoV Urbani [1]: 0.3 | Binding of serum London to linear peptides of protein N of SARS-CoV Urbani [1]: 0.6 | Binding of serum London to looped/cyclic peptides of protein N of SARS-CoV Urbani [1]: 0.2 | Binding of serum SARS-green to linear peptides of protein N of SARS-CoV Urbani [1]: 2.4 | Binding of serum SARS-green to looped/cyclic peptides of protein N of SARS-CoV Urbani [1]: 0.6 | Binding of serum SARS-yellow to linear peptides of protein N of SARS-CoV Urbani [1]: 1.1 | Binding of serum SARS-yellow to looped/cyclic peptides of protein N of SARS-CoV Urbani [1]: 0.3 | Control Serum Blood-Bank Looped peptides [2]: 0.4 | Control serum Blood-bank linear peptides [2]: 0.7 | Control serum LUMC linear peptides [2]: 0.7 | Control serum LUMC looped peptides [2]: 0.3 | Binding of a rabbit serum to linear peptides of protein N of SARS-CoV Urbani (Rabbit serum linear peptides) [3]: 0.1 | Binding of a rabbit serum to looped/cyclic peptides of protein N of SARS-CoV Urbani (Rabbit serum looped peptides) [3]: 0.1 | Binding of antibody 03-018 to linear peptides of the N protein of SARS-CoV Urbani [4]: 0.1 | Binding of antibody 03-018 to looped/cyclic peptides of the N protein of SARS-CoV Urbani [4]: 0.2

Source: patent publication US20070128217A1 (priority 2003, published 2007)
